Reference: patent US7129218B2, “Use of rhamnolipids in wound healing, treatment and prevention of gum disease and periodontal regeneration” (Paradigm Biomedical, Inc., priority 1999, dated 2006)
Where a name gives a salt, the structure may show the parent alone.

What was measured:
[1] = system: burn wounds; experiment: Burn wounds, 7% body surface, topical treatment (rats); format: in vivo, Sprague-Dawley rats; conditions: 1% chlorhexidine hydrochloride in combination with BAC-3 in ointment, burn wounds
Protocol: The wounding of animals was performed according to the Protocol for Animal Use and Care at the University of California-Davis (hereafter UC-Davis). The entire animal protocol required 70 Sprague-Dawley rats: 30 rats for incision wounds and 40 rats for burn wounds. Among them 36 rats were burned over 7% of their skin and 4 rats were burned over 15% of their skin. Incision wounds of whole skin and burn wounds were treated topically with 2 test doses of the pharmaceutical preparation of di-rhamnolipid BAC-3. […] D.E.A. Hamburg); 23.8 g Lanolinum (Producer I.O.I. Hamburg); 4.7 g Cholesterin (Producer: Solvay, Wiena, Austria); Water Number: 320); or b). 1%; 0.1% active rhamnolipid (BAC-3) with antiseptic (chlorhexidine hydrochloride-[…]). Eucerin with BAC-3 was administrated twice daily during healing. The same experiment had one control group without the treatment, and one control group which was treated with ointment+1% chlorhexidine hydrochloride. During the experiment, animal body weight and behavior was checked every third day, and photographs were taken periodically. Burn wounds. The consecutive burn wounds should ideally be identical in depth and extent. The standard method defines the size and location of the burn wound, the temperature gradient, duration of exposure and method of applying the burn. The wound surface areas tested were of two different sizes. One size to 7% of the body surface, which enables one to compare the rate of wound healing with different percentage of BAC-3 and the other size to 15% of the body surface, which is a sufficient size so that healing could not occur by contraction alone. On the other hand, the total wound surface area should not cause major systematic problems. The latter can be concluded from undisturbed weight gain of the animals. The standard animal burn was performed by techniques and device described by Walker. The burning devices were prepared using a model device ordered from U.S. Army Surgical Research Unit, Experimental Surgery, Army Medical Center, Fort Sam Houston, Tex. 78234. […] The surface of the skin was measured for every animal using Mech's formula: A=kW^2/3; A=surface area in cm^2; W=body weight in grams; k=10. Method of burning. Each animal was anesthetized with sodium pentobarbital administered i/p (5 mg/25 g). (Producer: Veterinary Laboratory Inc. Lenexa, Kans.). The hair over the dorsum was clipped with animal clippers. The animal was placed supine in the burning device and the extremities were tied; the malleable retractor was placed over the animal and secured snugly with plastic straps. The entire device was then picked up by the retractor ends with forceps and the exposed area was immersed in boiling water. Ten seconds of exposure was sufficient to produce a full-thickness burn. On removal from the water, the dorsum was quickly dried by rolling on a towel and the animal was released and individually caged. This procedure produced a uniform burn with sharp margins. On post burn days 7, 14 and 45, animals were sacrificed by overdose of sodium pentobarbital and skin specimens were taken for histopathology. Specimens included the wound bed as well as the healthy skin of the wound margins. The specimens were fixed, and two stainings were routinely performed: Hematoxylin-Eosin (H&E) for microscopic evaluation, Verhoeff's staining for a better visualization of the crust and the regenerating dermis, and the alpha smooth muscle acting to identify the myofibroblasts. Microscopic findings were interpreted by a veterinarian pathologist. During the microscopic and macroscopic observations, four wound healing parameters were evaluated: crust formation, re-epithelialization, formation of granulation tissue and inflammation. 36 rats were divided into 6 groups. Each group had six animals. After burning rats according to the above-described procedure, each rat was caged individually. […]

[2] = system: Wistar Kyoto (WKY) rats; conditions: cited from earlier work
[3] = system: Wistar Kyoto (WKY) rats; conditions: cited from earlier work; remark: listed apart in the source
[4] = system: mice; conditions: doses that failed to produce antidepressant effects in control animals; cited from earlier work

## [H]/N=C(\N/C(=N/[H])NCCCCCCNC(=N)NC(=N)Nc1ccc(Cl)cc1)Nc1ccc(Cl)cc1 [chlorhexidine hydrochloride, reference compound]
[1]
  wound irritation (rats scratched the wounds): irritated wounds

## CNCCCN1c2ccccc2CCc2ccccc21 [desipramine]
[2]
  immobility in the forced swim test: reduces
[3]
  incidence of stress ulcer: reduces

## Cc1nc2n(c(=O)c1CCN1CCC(c3noc4cc(F)ccc34)CC1)CCCC2 [risperidone]
[4]
  PCP-induced enhancement of immobility in the forced swimming test: attenuated

## Cc1nc2sccn2c(=O)c1CCN1CCC(=C(c2ccc(F)cc2)c2ccc(F)cc2)CC1 [ritanserin]
[4]
  PCP-induced enhancement of immobility in the forced swimming test: attenuated
